Data from the Kinase Knowledgebase extract (Sharma et al. 2016).

Molecular target: PIK3CD (Human) (UniProt O00329)
Test: Assessment of PIK3CD Kinase Activity

Chain of PIK3CD (Human) (O00329 whole entry, looked up): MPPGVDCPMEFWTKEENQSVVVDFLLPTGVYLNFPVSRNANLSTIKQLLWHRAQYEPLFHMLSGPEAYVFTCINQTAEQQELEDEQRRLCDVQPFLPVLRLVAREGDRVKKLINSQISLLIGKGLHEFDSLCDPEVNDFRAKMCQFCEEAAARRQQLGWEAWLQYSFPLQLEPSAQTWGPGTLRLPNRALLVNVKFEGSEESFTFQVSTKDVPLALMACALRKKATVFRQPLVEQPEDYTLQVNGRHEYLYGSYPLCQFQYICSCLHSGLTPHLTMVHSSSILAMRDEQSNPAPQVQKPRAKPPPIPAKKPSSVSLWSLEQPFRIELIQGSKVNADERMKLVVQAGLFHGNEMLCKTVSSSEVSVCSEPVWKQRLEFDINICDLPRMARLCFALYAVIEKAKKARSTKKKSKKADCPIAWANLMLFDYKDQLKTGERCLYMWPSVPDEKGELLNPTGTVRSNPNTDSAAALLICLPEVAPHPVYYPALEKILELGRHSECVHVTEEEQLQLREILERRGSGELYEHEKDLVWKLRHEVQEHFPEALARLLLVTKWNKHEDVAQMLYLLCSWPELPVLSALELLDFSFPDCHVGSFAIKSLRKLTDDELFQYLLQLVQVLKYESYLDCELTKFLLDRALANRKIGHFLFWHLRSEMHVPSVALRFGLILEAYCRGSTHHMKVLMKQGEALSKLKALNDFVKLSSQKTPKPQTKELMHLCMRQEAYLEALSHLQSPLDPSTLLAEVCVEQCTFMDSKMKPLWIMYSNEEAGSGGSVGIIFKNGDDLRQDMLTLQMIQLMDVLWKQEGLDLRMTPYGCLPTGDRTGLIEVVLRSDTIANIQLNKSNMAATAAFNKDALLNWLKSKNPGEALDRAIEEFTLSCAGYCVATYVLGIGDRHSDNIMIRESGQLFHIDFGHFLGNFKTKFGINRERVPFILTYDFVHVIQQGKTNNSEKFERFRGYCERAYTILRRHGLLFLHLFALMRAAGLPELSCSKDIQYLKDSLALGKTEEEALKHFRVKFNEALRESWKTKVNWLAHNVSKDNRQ

Row | IC50 [nM] | SMILES
1 | < 50 | CCn1c(-c2cn[nH]c2)nc2c(N3CCC(n4c(=O)[nH]c5ccccc54)CC3)ncnc21
2 | 500 to 1500 | Cc1cccc(C)c1-n1ncc2c1CCN(c1ncnc3c1nc(C(=O)NCC1CC1)n3C)C2
3 | 500 to 1500 | Cc1ccccc1-n1ncc2c1CCN(c1ncnc3c1nc(C(=O)NCC1CC1)n3C)C2
4 | 50 to 250 | Cn1c(C(=O)NCC2CC2)nc2c(N3CCC(n4c(N)nc5ccccc54)CC3)ncnc21
5 | < 50 | Cc1c(-c2nc3c(N4CCC(n5c(=O)[nH]c6c(F)cccc65)CC4)ncnc3n2C)cnn1C
6 | 500 to 1500 | Cc1cccc(-n2ncc3c2CCN(c2ncnc4c2nc(C(=O)NCC2CC2)n4C)C3)c1
7 | < 50 | CCCn1cc(-c2nc3c(N4CCC(n5c(=O)[nH]c6ccccc65)CC4)ncnc3n2CC)cn1
8 | 50 to 250 | CC1CN(c2ncnc3c2nc(C(=O)NCC2CC2)n3C)CCC1n1c(=O)[nH]c2ccccc21 (centres undefined)
9 | < 50 | Cn1c(-c2cn[nH]c2)nc2c(N3CCC(n4c(=O)[nH]c5ccccc54)CC3)ncnc21
10 | 250 to 500 | Cn1c(C(=O)NCC2CC2)nc2c(N3CCC(C4C(=O)Nc5ccccc54)CC3)ncnc21 (centres undefined)
11 | 50 to 250 | CN1CCN(c2cccc3c2[nH]c(=O)n3C2CCN(c3ncnc4c3nc(C(=O)NCC3CC3)n4C)CC2)CC1
12 | 50 to 250 | Cn1c(C(=O)NCC2CC2)nc2c(N3CCC(n4c(=O)[nH]c5ccccc54)CC3)ncnc21
13 | 500 to 1500 | Cc1ccc(-n2ncc3c2CCN(c2ncnc4c2nc(C(=O)NCC2CC2)n4C)C3)c(C)c1
14 | 50 to 250 | COc1cccc2c1[nH]c(=O)n2C1CCN(c2ncnc3c2nc(C(=O)NCC2CC2)n3C)CC1
15 | 500 to 1500 | COc1ccc(S(=O)(=O)N2CCN(c3ncnc4c3nc(-c3cnn(C)c3)n4C)CC2)cc1
16 | 500 to 1500 | CN(C)C1CN(C(=O)c2nc3c(N4CCC5(CC4)C(=O)NCN5c4ccccc4)ncnc3n2C)C1
17 | < 50 | CN(C)c1ccc(-c2nc3c(N4CCC(n5c(=O)[nH]c6ccccc65)CC4)ncnc3n2C)cn1
18 | 250 to 500 | Cn1c(C(=O)NCC2CC2)nc2c(N3CCc4c(cnn4-c4ccccc4)C3)ncnc21
19 | 50 to 250 | Cn1c(C(=O)N2CC[C@@H](F)C2)nc2c(N3CCC(n4c(=O)[nH]c5ccccc54)CC3)ncnc21
